Results published in the METLIN SMRT retention time set (Domingo-Almenara et al. 2019).

Experiment: gradient 5% acetonitrile 3 min, to 50% in 2 min, to 85% in 15 min, held 3 min, 100 µL/min
Settings: column: Zorbax Extend-C18 2.1 x 50 mm; eluents: water / acetonitrile, 0.1% formic acid
How it was run: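 Values are retention times taken from adduct peaks that software picked and an analyst inspected. The pure standards were run as mixtures of ~100 molecules on HPLC linked to a quadrupole time-of-flight mass spectrometer, in positive and negative ionization mode. A Zorbax Extend-C18 column (2.1 × 50 mm, 1.8 μm) was used at 100 μL/min with water and acetonitrile, each including 0.1% formic acid.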

Structure (SMILES)	RP-LC retention time [s]
CCCN1C(=O)CN(S(=O)(=O)c2ccccc2)CC1(C)C(=O)NCc1ccc(C)cc1 (stereo not given)	898
COCC(=O)N1CCc2c([nH]c3ccccc23)C1c1ccc(C)cc1 (stereo not given)	971
N#Cc1ccc(C(=O)NCc2cnoc2-c2ccc(F)cc2)cc1	848
O=C(NCCc1ccccc1)C(=O)NCc1cccnc1	567
Cc1ccccc1CN1CCC2(CC1)CC(O)(c1ccccn1)CCO2 (stereo not given)	570
COCCNC(=O)C1CCCCN1S(=O)(=O)c1ccc(F)cc1 (stereo not given)	769
CCCN1CCN(C(=O)CN2C(=O)CCCc3cc(S(=O)(=O)N4CCOCC4)ccc32)CC1	590
O=S(=O)(c1cc(-c2cc(C(F)(F)F)on2)cs1)N1CCN(c2ccc(Cl)cc2)CC1	1290
Cc1ccc(CNC(=O)C2(C)CN(S(C)(=O)=O)CC(=O)N2c2ccc(C)c(Cl)c2)cc1 (stereo not given)	874
CCC1Oc2ccc(S(=O)(=O)N3CCC(C(=O)Nc4ccc(F)cc4C)CC3)cc2NC1=O (stereo not given)	922
O=C(c1nnn2c1COC(c1ccccc1)C2)N1CCN(C(=O)c2cccc3[nH]ccc23)CC1 (stereo not given)	792
CCOc1cccc(C2CC(c3cccc(OC)c3)=NC3(CCN(C(C)C)CC3)N2)c1O (stereo not given)	618
CCCn1c(C)cnc1C1CN(S(=O)(=O)c2cc(Cl)ccc2Cl)C1	607
Cc1cc(C(=O)N2CCCC(c3nnc(-c4cccs4)o3)C2)no1 (stereo not given)	694
CCC(=O)N(C)CCc1noc(-c2ccc(C(=O)NCCN(C)C)cc2)n1	579
Brc1ccc(C(c2nnc(-c3ccccc3)o2)N2CCN(c3ncccn3)CC2)cc1 (stereo not given)	1170
Cc1cccc(NC(=O)N2CCC(CN3CCCC(C)C3)CC2)c1C (stereo not given)	620
CC(CCc1ccccc1)NC(=O)C1CN(C(=O)c2cccs2)C1 (stereo not given)	727
Cn1c(N2CCC(C(=O)N3CCN(c4ccccn4)CC3)CC2)cc(=O)n(C)c1=O	578
O=C(Cc1c(F)cccc1Cl)NCC(=O)N1CCN(c2ccccn2)CC1	605
COc1ccc(CC(=O)Nc2ccc3ncnc(N4CCCC4)c3c2)cc1Cl	680
CCn1nnc(NCc2ccc(-c3cccc(Cl)c3)o2)n1	1010
CC(C)(C)C(=O)N1CCC(OC2CCN(Cc3ccccc3)CC2)CC1	638

Structure (SMILES)	RP-LC retention time [s]
COc1ccc(S(=O)(=O)N2CCN(c3cc(C)nc(NC4CCCCC4)n3)CC2)cc1	770
C=CCNC(=O)Nc1nc(CSC)cs1	653
Cc1cc(C)c(S(=O)(=O)N2CCc3c(c(-c4nnc(-c5ccccc5)o4)nn3C)C2)cc1C	1070
Cn1cnc2ccc(-c3noc(-c4cccc(NC(=O)c5ccco5)c4)n3)cc21	682
O=C(NCc1cccnc1)c1ccc(-c2ccc(N3CCSCC3)nc2)cc1	582
Cn1cc(-c2ccncc2)cc1C(=O)NCc1ccccc1Cl	646
Cc1nc(Cn2cccc2C(=O)Nc2cccc(Br)c2)no1	936
CC(=O)N1c2ccc(S(=O)(=O)N3CCCCC3)cc2CC1C(=O)N1CCN(c2ccccn2)CC1 (stereo not given)	645
N#Cc1cccc(Cn2cc(S(=O)(=O)N3CCCCC3)ccc2=O)c1	842
CCOC(=O)Cc1csc(NC(=O)C2CCN(C(C)=O)CC2)n1	631
Cc1ccc(CNC(=O)c2nc3cccnc3n(CC(C)C)c2=O)cc1C	1010
COc1ccccc1OCC1c2ccsc2CCN1C(=O)CN(CC1CC1)C(=O)C(C)C (stereo not given)	947
O=C(CCc1c(-c2ccc(F)cc2)nc2ccccn12)Nc1ccccc1C(F)(F)F	691
Cn1c(N2CCN(S(=O)(=O)c3ccc(Cl)s3)CC2)nc2ccccc21	614
Cc1ccc(C(=O)NC2CCN(c3ccccc3)C2=O)cc1F (stereo not given)	823
Cc1ccn2cc(-c3ccc(NC(=O)c4cccc(I)c4)cc3)nc2n1	734
O=S(=O)(c1ccc(-c2csc(Nc3cccc4ccccc34)n2)cc1)N1CCCCC1	1280
COC(=O)c1c(-c2ccc(Cl)cc2)noc1N1CCOCC1	968
CCCNc1cc(N2CCCC(CCC(=O)NCCOC)C2)ncn1 (stereo not given)	592
Cc1cc(C(F)(F)F)nn1CC(=O)NCC1Cn2cccc2C(=O)N1CC(C)C (stereo not given)	797
Cc1nc(Cn2cccc2C(=O)Nc2ccc(C(C)C)cc2)no1	982
O=C(c1cccc(F)c1)N1CCCC1c1nc(-c2ccccc2)no1 (stereo not given)	946
COc1ccc(C(=O)N2CCc3ccc(CNC(=O)NCC4CCCO4)cc32)cc1 (stereo not given)	712

Structure (SMILES)	RP-LC retention time [s]
CCOc1ccc(NC(=O)c2cc(=O)c3cc(Cl)ccc3o2)c2cccnc12	665
O=C1COc2cc(S(=O)(=O)N3CCC(C(=O)NCC4CCCO4)CC3)c(Cl)cc2N1 (stereo not given)	653
CC1CS(=O)(=O)N(c2ccc(S(=O)(=O)Nc3ccccc3C(F)(F)F)cc2)C1=O (stereo not given)	819
CC(C)NP(=O)(NC(C)C)OP(=O)(NC(C)C)NC(C)C	762
COc1ccc(-c2csc(NC(=O)CCn3c(=O)oc4ccccc43)n2)cc1	940
O=C1CC(C(=O)N2CCN(Cc3ccccc3)CC2)CN1CCc1c[nH]c2ccc(F)cc12 (stereo not given)	634
CCCC(CCC)C(=O)N1CCCN(C2=NS(=O)(=O)C(c3ccc(F)cc3)=C2C)CC1	972
Cc1ccn2cc(-c3ccc(NC(=O)CCC4CCCC4)cc3)nc2n1	722
COc1ccc(NC(C)=O)cc1NS(=O)(=O)C1CC1	607
O=c1ccn(-c2cccc(F)c2)nc1-c1nc(-c2ccccc2)no1	851
Cc1nc(-c2cnccn2)n(CC(=O)Nc2cccc(C#N)c2)c(=O)c1C	711
O=C(CN1CCN(Cc2ccccc2)C1=O)NCc1cccc(Cl)c1	822
CN1C2CCC1CC(OC(=O)c1c[nH]c3ccccc13)C2 (stereo not given)	644
COCCNC(=O)CC1CCN(C(=O)c2ccc3oc(C4CC4)nc3c2)CC1	601
CCCN1C(=O)c2c(C(=O)NCc3ccc(OC(C)C)cc3)ncn2CC1(C)C(=O)NC1CCCC1 (stereo not given)	923
COc1ccc(-c2cn3c(CC(=O)Nc4ccc(F)cc4Cl)csc3n2)cc1	795
Cc1[nH]nc(-c2c(C)sc(C)c2S(=O)(=O)NCc2ccc(Cl)cc2)c1C	1100
CN(CCNC(=O)CN1C(=O)CSc2cccn2-c2ccccc21)C1CCCCC1	670
Cn1c(=O)c2ccn(CC(=O)N3CCN(c4ccc(Cl)cc4)CC3)c2n(C)c1=O	752
CCOc1ccccc1NC(=O)N1CCC2(CC1)NC(=O)c1ccc(Cl)cc1N2	834
CCc1nnc2ccc(-c3noc(-c4c(F)cccc4F)n3)cn12	845
COc1ccccc1N1CCN(C(=O)C2CCN(C(=O)C3Sc4ccccc4NC3=O)CC2)CC1 (stereo not given)	717
Cc1ccc(N2CCC(NC(=O)Nc3cc(C)ccc3C)C2=O)cc1 (stereo not given)	618

Structure (SMILES)	RP-LC retention time [s]
O=C(Cn1c(=O)c2cc(C3CC3)nn2c2ncccc21)NCc1ccc(F)cc1	748
COc1ccc(OC)c(CN2CCc3nc(N4CCOCC4)ncc3C2)c1	607
Cc1ccc(-c2cc(C(=O)O)n(C)c2)cc1	856
Cc1cc(N)n(Cc2ccccc2)n1	569
O=C(Nc1cccc(-c2cn3cccnc3n2)c1)c1ccc(Cl)cc1	739
CCc1c(C2CCN(C(=O)c3ccc(OC)nc3)CC2)noc1N	663
COc1ccc(-c2cc3nn(CC(=O)Nc4ccccc4)c(=O)n3c(C)n2)cc1	661
Cc1ccc(-n2c(=O)c3c(cc(C)n3C)n(CC(=O)Nc3ccccc3Cl)c2=O)cc1	900
O=C(C1CCN(c2nnc(-c3ccccc3)o2)CC1)N1CCN(C2CCCCC2)CC1	628
Cc1ccc(-n2nnnc2CNC(=O)COc2ccc(Cl)cc2Cl)cc1C	931
CCN1CCN(CCNC(=O)c2c(N3CCCC3=O)c3cc(F)ccc3n2CC)CC1	614
CCCCOc1ccc(CNC(=O)C2CCN(Cc3cn(C)c4ccc(OC)cc34)CC2)cc1	804
O=C(Cn1ncc2c(N3CCN(c4ccccn4)CC3)ncnc21)NCc1ccc(F)c(Cl)c1	628
CN(C)S(=O)(=O)NCc1nnnn1C1CCCCC1	681
COc1cc(OC)c(NC(=O)NCC2(N3CCOCC3)CCOC2)cc1Cl (stereo not given)	612
COc1ccc(S(=O)(=O)N2CCCC(C(=O)NC3CCCC3)C2)cc1OC (stereo not given)	802
CCCNC(=O)Cn1c(C2CCCO2)nc2ccccc21 (stereo not given)	593
COc1ccc(N2CCN(C(=O)Cn3cccc3-c3nnc(-c4ccccc4)o3)CC2)cc1	907
O=C(NCCc1ccncc1)C1CN(C(=O)COc2ccccc2F)C1	544
CC(C)CC(=O)Nc1ccc2nc(N3CCN(c4cccc(Cl)c4)CC3)cc(C(=O)O)c2c1	762
CCOC(=O)C1CCN(Cc2nc(-c3ccc(N4CCCCC4)nc3)no2)CC1	664
